Patent US5929074A, “Pyridazinone derivatives with pharmaceutical activity” (Nissan Chemical Industries, Ltd., priority 1993, dated 1999)
Like-named read-outs stand apart in the source and are kept apart here.

Tests used:
[1] = tested on: guinea-pig trachea; assay: Bronchodilating effect in vitro, Method 1-1: relaxation of LTD4-contracted guinea-pig trachea strips; type: cell-based; settings: Method 1-1, LTD4 (30 nM) contracted trachea, indomethacin 5 μM, read-out: EC50 (concentration to achieve 50% relaxation relative to relaxation by 1 mM aminophylline)
Procedure: (§1) A test sample drug was dissolved in 100% dimethylsulfoxide (DMSO, Wako Junyaku) and diluted for use. Leukotriene D4 (LTD4, Ultrafine) and isoproterenol (Isoproterenol, Sigma) were diluted with distilled water. Indomethacin (Indo, Sigma) was dissolved in 100% ethanol (EtOH, Komune Kagaku). Aminophylline (AP, Sigma), histamine dihydrochloride (His, Wako Junyaku) was dissolved in distilled water. The final concentrations of DMSO and EtOH in a bath were made not higher than 0.25% v/v and not higher than 0.1% v/v, respectively. Method 1:1:
(§2) A guinea-pig of 300-450 g was exsanguinated, and the trachea was taken out. After removing fat and connective tissues, it was cut and divided into 2 to 3 spiral strips, each having a width of about 2 mm and containing 4 smooth muscle tissues. Each specimen thus prepared was suspended in an organ bath of 8 ml containing a modified Tyrode solution aerated with 95% O2 +5% CO2 at 37° C., and a load of 1 g was applied thereto. The relaxation of the muscle was recorded by a pen recorder (Yokogawa Hokushin Electric, type 3066) by means of an isotonic transducer (Nihon Kohden, TD-112S).
The composition of the modified Tyrode solution was as follows (mM):
The specimen was allowed to stand for 50-60 minutes, and was contracted with histamine dihydrochloride (100 μM). After the reaction became constant, it was washed and allowed to stand for 20-30 minutes. Indomethacin (5 μM) was added thereto, and after incubation for 30 minutes, the specimen was contracted by adding LTD4 (30 nM). After the reaction-became stable, a test sample drug was accumulatively administered. Finally, AP (1 mM) was added to achieve the maximum relaxation reaction. The result was expressed by relaxation percent relative to the relaxation by AP which was rated 100%, and a concentration to achieve 50% relaxation (EC50, μM) was measured. As a control drug, AP was used.

[2] = tested on: guinea-pig trachea; assay: Bronchodilating effect in vitro, Method 1-2: relaxation of guinea-pig trachea strips (no LTD4 contraction); type: cell-based; settings: Cavia porcellus; Method 1-2; trachea conditioned with 1 μM isoproterenol, no LTD4; DMSO 0.2 v/v%; read-out: EC50 (concentration to achieve 50% relaxation relative to relaxation by 1 mM aminophylline)
Procedure: as §1, §2
The same measuring method as method 1-1 was employed. The specimen was allowed to stand for from 60 to 90 minutes and then relaxed by an addition of 1 μM of isopreterenol. The specimen was washed, and this operation was repeated at an interval of from 30 to 40 minutes until a constant relaxation reaction was reached. Then, a test sample drug was accumulately applied to relax the specimen. Finally, 1 mM of AP was added to achieve the maximum relaxation reaction. The result was expressed by relaxation percent relative to the relaxation by AP which was rated 100%, and a concentration to achieve 50% relaxation (EC50, μM) was obtained. The final concentration of DMSO in the bath was adjusted to be 0.2 v/v%. As a control drug, AP was used.

[3] = tested on: platelet; assay: Anti-platelet aggregation effect in rabbits (ADP-induced); type: cell-based, rabbit; settings: rabbit PRP, ADP 5 to 10 μM, 37° C., read-out: IC50 (concentration at which aggregation of control sample was 50% inhibited)
Procedure: Anti-platelet aggregation effect in rabbits
Blood was collected from the abdominal artery of Japanese white male rabbits (weight: 1.8 to 2.5 kg) into a syringe containing 1/10 volume 3.8% sodium citrate. The blood thus obtained was subjected to a centrifugation at 200×g for 7 minutes at room temperature to obtain platelet rich plasma (PRP). Furthermore, the residue was subjected to a centrifugation at 2000×g for 10 minutes to obtain platelet poor plasma (PPP). The measurement was effected by diluting PRP with PPP to 300,000/mm^3. PRP and PPP were placed in a cuvette, and the measurement range of transmittance was adjusted to 0% in the case of PRP and to 100% in the case of PPP. Thereafter, a test sample drug dissolved in 100% dimethylsulfoxide (DMSO) was added to PRP (the final concentration of DMSO: 0.25%). After incubation was effected at 37° C. at 900 rpm for 2 minutes, an aggregating agent was added to record an aggregation curve. The anti-platelet aggregation effect of the test sample drug was expressed by a concentration (IC50 : μM) at which the aggregation of control sample was 50% inhibited. The aggregating agent ADP was used at the minimum concentration (5 to 10 μM) which caused the maximum aggregation. The measurement of platelet aggregation was carried out by using NBS HEMA TRACER 601.

[4] = tested on: anaphylactic bronchoconstriction mediated by endogeneously liberated SRS-A; assay: Effect on anaphylactic bronchoconstriction mediated by endogeneously liberated SRS-A in passively sensitized guinea-pig; type: in vivo; settings: 30 mg/kg, orally 2 hours before EA challenge; for inhibition in vivo at 30 mg/kg: Cavia porcellus, po, 2 h, read-out: Inhibition of broncho-constriction
Procedure: Effect on anaphylactic bronchoconstriction mediated by endogeneously liberated SRS-A in passively sensitized guinea-pig
Male guinea-pigs (350-450 g) were passively sensitized with intravenous (i.v.) injection of 0.125 ml rabbit anti-EA (egg albumin) serum (Capple Laboratories) 1 to 2 days preceding the experiment. Antigen-induced anaphylactic bronchoconstrictions mediated by endogeneously liberated SRS-A were measured by modified method of Konzett and Rossler (Arch. Exp. Path. Pharmak., 195, 71, 1940). Sensitized quinea-pigs were anaesthetized with intraperitoneal injection of urethane (1.5 g/kg). The right jugular vein was cannulated for the administration of the all agents and trachea was cannulated to record total pulmonary resistance. Guinea-pigs were artificially ventilated by a small animal respirator (Shinano, Model SN-480-7) set at a stroke volume of 4.5 ml and a rate of 50 breaths per min. The change in pulmonary resistance was measured with a pressure transducer (Nihon Kohden, Model TP-602T) connected to a T-tube on the tracheal cannula. The percentage of the maximum bronchoconstriction obtained by clamping off the trachea. Following surgical preparation, the animals were pretreated with indomethacin (2 mg/kg, 10 min), pyrilamine (2 mg/kg, 6 min) and propranolol (0.1 mg/kg, 5 min) prior to the EA challenge (0.2 mg/kg). All test compounds were administered orally 2 hours before the EA challenge. Inhibition (%) of broncho-constriction was determined as follows: Inhibition (%)=(1.0-% maximum bronchoconstriction in test/% maximum bronchoconstriction in control)×100. The maximum bronchoconstriction was 62±6% (Mean±S.E.M; n=6) and the number of test animals was 5-6.

[5] = Oryctolagus cuniculus, Platelet

Compound | EC50 ([1]; Cavia porcellus) [nM] | EC50 [2] [nM] | other results
Cn1c(=O)c2[nH]cnc2n(C)c1=O [Aminophylline, reference compound] | 178000 | 37000 | –
COc1ccc(CNc2cn[nH]c(=O)c2Cl)cc1OCCN1CCN(Cc2ccccc2)CC1 [Compound 4] | 1700 | – | IC50 [3, 5]: 5200 nM
COc1ccc(CNc2cn[nH]c(=O)c2Br)cc1OCCN1CCN(Cc2ccccc2)CC1 [Compound 5] | 420 | – | IC50 [3, 5]: 4100 nM
COc1ccc(CNc2cn[nH]c(=O)c2Br)cc1OCCN1CCN(Cc2ccccc2)CC1 [Compound 6] | – | – | IC50 [3]: 3900 nM
COc1ccc(CNc2cn[nH]c(=O)c2Br)cc1OCCN1CCN(Cc2ccc(F)cc2)CC1 [Compound 13] | 450 | – | IC50 [3, 5]: 2900 nM
COc1ccc(CNc2cn[nH]c(=O)c2Br)cc1OCCN1CCN(Cc2ccc(F)cc2)CC1 [Compound 14] | – | – | IC50 [3]: 3500 nM
COc1ccc(CNc2cn[nH]c(=O)c2Cl)cc1OCCN1CCN(Cc2ccc(F)cc2)CC1 [Compound 15] | 480 | – | IC50 [3, 5]: 4500 nM
COc1ccc(CNc2cn[nH]c(=O)c2Cl)cc1OCCN1CCN(Cc2ccc(F)cc2)CC1 [Compound 16] | – | 340 | IC50 [3]: 5200 nM
CCn1ncc(NCc2ccc(OC)c(OCCCN3CCN(Cc4ccc(F)cc4)CC3)c2)c(Cl)c1=O [Compound 27] | 4000 | – | –
COc1ccc(CNc2cn[nH]c(=O)c2Br)cc1OCC(=O)N1CCN(Cc2cccnc2)CC1 [Compound 34] | 3800 | – | –
COc1ccc(CNc2cn[nH]c(=O)c2Cl)cc1OCC(=O)N1CCN(Cc2cccnc2)CC1 [Compound 35] | 6600 | – | –
COc1ccc(CNc2cn[nH]c(=O)c2Cl)cc1OCC(=O)N1CCN(Cc2ccccc2)CC1 [Compound 37] | – | – | Inhibition of broncho-constriction [4]: 54%
COc1ccc(CNc2cn[nH]c(=O)c2Br)cc1OCC(=O)N1CCN(Cc2ccccc2)CC1 [Compound 38] | – | – | IC50 [3, 5]: 1200 nM
COc1ccc(CNc2cn[nH]c(=O)c2Cl)cc1OCC(=O)N1CCN(Cc2ccc(Cl)cc2)CC1 [Compound 51] | 6100 | 97 | IC50 [3, 5]: 1100 nM
COc1ccc(CNc2cn[nH]c(=O)c2Cl)cc1OCC(=O)N1CCN(Cc2ccc3ccccc3n2)CC1 [Compound 61] | – | 310 | –
CCOc1n[nH]c(=O)c(Cl)c1NCc1ccc(OC)c(OCC(=O)N2CCN(Cc3ccccc3)CC2)c1 [Compound 66] | 180 | 67 | –
COc1ccc(CNc2c(OC(C)C)n[nH]c(=O)c2Cl)cc1OCC(=O)N1CCN(Cc2ccc(F)cc2)CC1 [Compound 76] | 690 | 48 | –
COc1ccc(CNc2c(OC(C)C)n[nH]c(=O)c2Cl)cc1OCC(=O)N1CCN(Cc2ccc(N)cc2)CC1 [Compound 78, 4-Chloro-5-[3-(4-(4-aminobenzyl)-piperazin-1-yl)-carbonylmethoxy-4-methoxybenzylamino]-6-isopropoxy-3(2H)-pyridazinone] | – | 14 | inhibition in vivo at 30 mg/kg [4]: 54%
COc1ccc(CNc2c(OC(C)C)n[nH]c(=O)c2Cl)cc1OCC(=O)N1CCN(Cc2ccc(NC=O)cc2)CC1 [Compound 79] | – | 41 | –

Now from value to compound, other results behind:

EC50 ([1]; Cavia porcellus) [nM] | EC50 [2] [nM] | Compound | other results
6900 | – | COc1ccc(CNc2cn[nH]c(=O)c2Cl)cc1OCC(=O)NCc1cccnc1 [Compound 31] | –
950 | 210 | COc1ccc(CNc2cn[nH]c(=O)c2Br)cc1OCCCC(=O)N1CCN(Cc2ccccc2)CC1 [Compound 48] | IC50 [3, 5]: 4000 nM
1100 | – | COc1ccc(CNc2cn[nH]c(=O)c2Cl)cc1OCCCCCC(=O)N1CCN(Cc2ccccc2)CC1 [Compound 49] | –
3100 | – | COc1ccc(CNc2cn[nH]c(=O)c2Cl)cc1OCC(O)CN1CCN(Cc2ccc(F)cc2)CC1 (stereo not drawn) [Compound 53] | –
– | 300 | COc1ccc(CNc2cn[nH]c(=O)c2Cl)cc1OCCCN1CCN(Cc2ccccc2)CC1 [Compound 54] | EC50 [1]: 2400 nM
7300 | – | COc1ccc(CNc2cn[nH]c(=O)c2Cl)cc1OC(C)CN1CCN(Cc2ccc(F)cc2)CC1 (stereo not drawn) [Compound 55] | –
– | 50 | COc1ccc(CNc2cn[nH]c(=O)c2Cl)cc1OCC(=O)N1CCC(Cc2ccccc2)CC1 [Compound 62] | –
– | 360 | CCOc1n[nH]c(=O)c(Cl)c1NCc1ccc(OC)c(OCCN2CCN(Cc3ccc(F)cc3)CC2)c1 [Compound 65] | –
– | 430 | CCOc1n[nH]c(=O)c(Cl)c1NCc1ccc(OC)c(OCC(C)(C)C(=O)N2CCN(Cc3ccc(F)cc3)CC2)c1 [Compound 69] | –
– | 250 | CCOc1n[nH]c(=O)c(Cl)c1NCc1ccc(OC)c(OCCCN2CCN(Cc3ccc4ccccc4n3)CC2)c1 [Compound 71] | –
– | 490 | CCOc1n[nH]c(=O)c(Cl)c1NCc1ccc(OC)c(OCC(=O)N2CCN(Cc3nc4ccccc4n3Cc3ccc(F)cc3)CC2)c1 [Compound 73] | –
– | 46 | CCOc1n[nH]c(=O)c(Cl)c1NCc1ccc(OC)c(OCC(=O)N2CCC(Cc3ccccc3)CC2)c1 [Compound 74] | inhibition in vivo at 30 mg/kg [4]: 30%
– | 400 | CCOc1n[nH]c(=O)c(Cl)c1NCc1ccc(OC)c(OCCN2CCC(Cc3ccccc3)CC2)c1 [Compound 75] | –
– | 57 | COc1ccc(CNc2c(OC(C)C)n[nH]c(=O)c2Cl)cc1OCC(O)CN1CCN(Cc2ccc(NC=O)cc2)CC1 (stereo not drawn) [Compound 77] | inhibition in vivo at 30 mg/kg [4]: 65%
– | 39 | COc1ccc(CNc2c(OC(C)C)n[nH]c(=O)c2Cl)cc1OCC(=O)N1CCN(Cc2ccc(NC(C)=O)cc2)CC1 [Compound 80] | inhibition in vivo at 30 mg/kg [4]: 30%
